From article PMC7696666, “Epithelial Transfer of the Tyrosine Kinase Inhibitors Erlotinib, Gefitinib, Afatinib, Crizotinib, Sorafenib, Sunitinib, and Dasatinib: Implications for Clinical Resistance” (Cancers, 2020)
Several values for one entry are separate records, joined by “and”; a condition that tells them apart may be missing. Equal values may be shown once. Entries after “also recorded” stand apart in the source; their conditions may differ. Read-outs that look alike come from different tables or passages of the source.

Experiments:
[1] = CaCo2 Transwell transport (Papp, efflux ratio); type: in vitro ADME, human; details: human; for efflux ratio at 180 min, 10 µM / efflux ratio at 180 min, 20 µM: read-out: Efflux Ratio (Papp B–A / Papp A–B); for Papp A→B at 180 min, 10 µM / Papp A→B at 180 min, 20 µM: read-out: Papp (Apical Basolateral); for Papp B→A at 180 min, 10 µM / Papp B→A at 180 min, 20 µM: read-out: Papp (Basolateral Apical); for efflux ratio at 180 min, 20 µM: Caco-2, 20 µM
Protocol: (§1) The Transwell system was developed using the wild type Caco-2 cell line (passage 15–25) cultured in Dulbecco’s […] medium (DMEM) at standard conditions of 37 °C, 5% CO2, and 100% humidity as previously reported. […] To ensure a controlled growth environment the plate was covered with Breathe-Easier cell culture foil during the incubation period. The integrity of the developed monolayer was assessed by TEER before administration of compound solutions and after the final sampling stage.
(§2) The initial concentration of the drug was verified from a 20 µL sample taken immediately from the donor compartment after drug administration (t = 0).
(§3) The permeability coefficient (Papp) represents a measure for the efficiency of transport and was calculated with the following equation: Papp=ΔQ/Δt×V/C0⋅A where ∆Q/∆t = the rate of increase in drug concentration (accumulative mass transport) in the receiver compartment over time (µM/s), V = volume in the receiver compartment (mL), C0 = the initial concentration of drug in the donor compartment (µM), and A = the membrane surface area (cm^2).
(§4) To take into account the slightly nonlinear transfer characteristics of each compound, the rate of increase in drug concentration was determined for each time period and the Papp was then calculated. The average Papp was then determined with units of cm/s × 10^−6 or µm/s.
(§5) The efflux ratio was calculated according to the equation: Efflux ratio=PappB→A/PappA→B.
(§6) Statistical significance was determined using a simple Student’s t-test where a p value of <0.05 was considered significant.

[2] = tested on: CaCo2 monolayer; assay: CaCo2 Transwell transport (Papp, efflux ratio); type: in vitro ADME, human; details: for Papp basolateral to apical: B–A
Protocol: as §1, §2, §3, §4, §5, §6

[3] = tested on: CaCo2 cells; assay: Intracellular accumulation in CaCo2 Transwell cells at the end of the transport period; type: in vitro ADME, human; details: for Intracellular accumulation at the end of the transfer period (A->B): A->B incubation
Protocol: (§7) In order to get insight in the barrier role of the CaCo2 model system, we determined the intracellular accumulation of the TKISs at the end of the transport period, in normal monolayers of CaCo2 cells and in several other colon cancer cell lines. At the end of the transport period (both from the B->A and A->B incubations), cells were harvested and intracellular accumulation was determined.
(§8) These cells were exposed to 20 μM of a TKI and were harvested after 2 h for determination of TKI concentration with LC-MS-MS. Values are means ± SEM for the number of experiments described in Figure 3, Figure 4, and Figure 5 and from three separate experiments for the monolayer CaCo2 and WiDr cells. […] A->B, mass transport from A to B; B->A, mass transport from B to A. For AFA, CRI, and DAS, no data in WiDr cells were available. […] The bar heights were not read.
(§9) In a different set of experiments, the CaCo2 cells were cultured in 6-wells plates as monolayers until semiconfluency. Two other colon cancer cell lines, WiDr and HT29, were cultured similarly. These cells were exposed for 2 h to various TKIs at concentrations varying from 50 nM to 20 µM). […] At the end of the incubation, cells were harvested, as described earlier, and extracted for drug analysis using LC-MS-MS as described above.

[4] = parameters: method as in PMID 30544701; details: method not given, ref [45], cited from earlier work
[5] = Disposition in blood compartments (whole blood, plasma, serum) of patients; type: in vivo, human; details: for blood plasma ratio: human, whole blood and plasma, oral
Protocol: Each individual sample was divided into two components; a 1 mL of tube of whole blood and 0.5 of plasma, each sample was stored at −20 °C until analysis could be performed. An additional serum sample was also obtained for patients treated with erlotinib. Blood samples for afatinib were obtained from NSCLC patients after 4 days receiving the standard daily dose of 40 mg.
Blood samples were taken at 1, 2, and 30 days after the start of treatment. Samples were separated from the whole blood into plasma, serum, and a packed red blood cell pellet (using the MESED apparatus). In a dose escalation study in order to determine whether a high pulsatile dose of sorafenib could be given to patients, we analyzed red blood cells and whole blood in 12 patients treated with sorafenib at total doses ranging from 2000 to 2800 mg daily. From these patients, samples were collected in 3 cycles.
For sunitinib, initially pharmacokinetic samples were collected over the first 24 h period from a single patient, with a renal cell carcinoma receiving a nonstandard treatment schedule (700 mg biweekly), in comparison to the standard 50 mg daily dose. Whole blood samples were divided into plasma, serum, and a packed red blood cell pellet. This cohort could later be extended with 6 patients treated with 800 mg sunitinib every 2 weeks enrolled in a clinical study to determine the tolerability of pulsatile sunitinib.
Five blood samples were taken over a 5-month period and divided into whole blood, an extracted 100 µL of red blood cells, and a plasma sample.

[6] = tested on: CaCo2 cells; assay: Intracellular accumulation in CaCo2 cells grown as normal monolayers; type: in vitro ADME, human; details: 20 μM, 2 h
Protocol: as §8, §9

[7] = tested on: WiDr cells; assay: Intracellular accumulation in WiDr colon cancer cells (monolayer); type: in vitro ADME; details: 20 μM, 2 h
Protocol: as §8, §9

[8] = tested on: HT29 cells; assay: Intracellular accumulation in HT29 colon cancer cells; type: in vitro ADME; details: after 24 h
Protocol: as §7
In a different set of experiments, the CaCo2 cells were cultured in 6-wells plates as monolayers until semiconfluency. Two other colon cancer cell lines, WiDr and HT29, were cultured similarly. […]

[9] = tested on: CaCo2 monolayer; details: cited from earlier work; for Papp (Apical Basolateral) / Papp (Basolateral Apical) / Efflux Ratio (Papp B–A / Papp A–B): 20 µM, previously reported, ref [39]; for Papp (Apical Basolateral): A–B; for Papp (Basolateral Apical): B–A
[10] = Caco-2, with sorafenib (co-incubated, concentration not stated), 10 µM, with sorafenib
[11] = clinical samples, read-out: Blood to plasma ratio
[12] = Caco-2, with erlotinib (co-incubated, concentration not stated), 10 µM, with erlotinib

Compound	efflux ratio at 180 min, 10 µM ([1]; Caco-2, 10 µM)	Papp A→B at 180 min, 10 µM ([1]; Caco-2, 10 µM)	Papp B→A at 180 min, 10 µM ([1]; Caco-2, 10 µM)	Efflux Ratio (Papp B–A / Papp A–B) ([2]; 10 µM)	Papp apical to basolateral ([2]; 10 µM, A–B)	Total amount transferred apical to basolateral in 3 h ([2]; 10 µM, A–B)	Papp basolateral to apical ([2]; 10 µM)	Intracellular accumulation at the end of the transfer period (A->B) [3]	Intracellular accumulation in HT29 cells [8]	blood plasma ratio [5, 11]	efflux ratio at 180 min, 20 µM [1]	Papp A→B at 180 min, 20 µM ([1]; Caco-2)	Papp B→A at 180 min, 20 µM ([1]; Caco-2)	Total amount transferred apical to basolateral in 3 h ([2]; 20 µM, A–B)	Log P [4]	Log D (pH 5.5) [4]	Log D (pH 7.5) [4]	Papp (Apical Basolateral) [9]	Papp (Basolateral Apical) [9]	Efflux Ratio (Papp B–A / Papp A–B) [9]	also measured
C[C@@H](Oc1cc(-c2cnn(C3CCNCC3)c2)cnc1N)c1c(Cl)ccc(F)c1Cl [Crizotinib, crizotinib]	> 5	–	7.7 ± 5.5 ×10⁻⁶ cm/s	–	–	nothing could be detected	–	2.11 pmol/μg protein	–	–	–	–	–	–	4.73	0.30	1.80	–	–	–	Papp (Apical Basolateral) ([2]; 10 µM, A–B): Unmeasurable; Effect of exposure on CaCo2 cells and membrane ([2]; 20 µM exposure): caused cell death and disruption of the membrane; A–B mass transport at 20 µM, fold lower than B–A mass transport at 10 µM ([2]; A–B 20 µM vs B–A 10 µM): 20 fold; Whole blood concentration higher than plasma ([5]; standard dose (250 mg twice daily), single patient): 30%
C#Cc1cccc(Nc2ncnc3cc(OCCOC)c(OCCOC)cc23)c1 [Erlotinib, erlotinib]	1.6	0.48 ± 0.26 ×10⁻⁶ cm/s	0.79 ± 0.65 ×10⁻⁶ cm/s	–	0.48 µm/s	–	–	not detectable; also recorded: no erlotinib was detectable	0.035 pmol/μg protein	> 30	–	–	–	–	2.39	2.74	3.04	0.13 ± 0.001 ×10^−6 cm/s	0.70 ± 0.30 ×10^−6 cm/s	5.4	efflux ratio at 180 min, 10 µM [1, 10]: 1.4; Papp A→B at 180 min, 10 µM [1, 10]: 0.35 ± 0.17 ×10⁻⁶ cm/s; Papp B→A at 180 min, 10 µM [1, 10]: 0.48 ± 0.3 ×10⁻⁶ cm/s; Intracellular accumulation at the end of the transfer period (B->A) ([3]; B->A incubation): no erlotinib was detectable; Intracellular accumulation in CaCo2 monolayer [6]: just detectable; Intracellular accumulation in WiDr cells [7]: no erlotinib; Fold higher in whole blood compared to plasma ([5]; standard dosing regimen, clinical samples): 100 fold; Efflux Ratio (Papp B–A / Papp A–B) ([9]; listed as erlotinib): > 5
CNC(=O)c1cc(Oc2ccc(NC(=O)Nc3ccc(Cl)c(C(F)(F)F)c3)cc2)ccn1 [Sorafenib, sorafenib]	0.92	10.1 ± 9.5 ×10⁻⁶ cm/s	9.3 ± 5.8 ×10⁻⁶ cm/s	–	–	–	–	1.65 pmol/μg protein	6 pmol/μg protein	> 3	0.86	14.1 ± 11.5 ×10⁻⁶ cm/s	11.4 ± 5.6 ×10⁻⁶ cm/s	approximately 950 pmol	5.16	4.26	4.26	–	–	–	efflux ratio at 180 min, 10 µM [1, 12]: 0.71; Papp A→B at 180 min, 10 µM [1, 12]: 18.6 ± 13.2 ×10⁻⁶ cm/s; Papp B→A at 180 min, 10 µM [1, 12]: 13.3 ± 10.5 ×10⁻⁶ cm/s; Efflux Ratio (Papp B–A / Papp A–B) ([2]; 20 µM): 0.81; Efflux Ratio (Papp B–A / Papp A–B) ([2]; 20 µM, listed as sorafenib): 0.8; blood plasma ratio ([5]; 2000–2800 mg cumulative daily dose, 12 patients, mean ± SD, read-out: Whole blood/plasma ratio): 1.2 ± 0.4; Fold increase of concentration in whole blood compared to plasma ([5]; low dose (400 mg twice daily), several patients): 2–4 fold
CCN(CC)CCNC(=O)c1c(C)[nH]c(/C=C2\C(=O)Nc3ccc(F)cc32)c1C [Sunitinib, sunitinib]	–	–	–	–	–	–	–	11.9 pmol/μg protein	32.2 pmol/μg protein	–	1.6	7.7 ± 4.6 ×10⁻⁶ cm/s	12.6 ± 12.3 ×10⁻⁶ cm/s	581.2 pmol	3.15	−0.09	1.09	–	–	–	blood plasma ratio ([5]; 50 mg, standard treatment at 50 mg, read-out: Whole blood/plasma ratio): 0.7; blood plasma ratio ([5]; single dose 14-fold higher than standard, 7 patients, mean ± SD, read-out: Whole blood/plasma ratio): 2.6 ± 0.7; Whole blood concentration lower than plasma ([5]; standard dosing regimen): 40–50%

Further lines, with some results ahead:

efflux ratio at 180 min, 10 µM ([1]; Caco-2, 10 µM)	Papp A→B at 180 min, 10 µM ([1]; Caco-2, 10 µM)	Papp B→A at 180 min, 10 µM ([1]; Caco-2, 10 µM)	Efflux Ratio (Papp B–A / Papp A–B) ([2]; 10 µM)	Papp apical to basolateral ([2]; 10 µM, A–B)	Total amount transferred apical to basolateral in 3 h ([2]; 10 µM, A–B)	Papp basolateral to apical ([2]; 10 µM)	Intracellular accumulation at the end of the transfer period (A->B) [3]	Intracellular accumulation in HT29 cells [8]	blood plasma ratio [5, 11]	efflux ratio at 180 min, 20 µM [1]	Papp A→B at 180 min, 20 µM ([1]; Caco-2)	Papp B→A at 180 min, 20 µM ([1]; Caco-2)	Total amount transferred apical to basolateral in 3 h ([2]; 20 µM, A–B)	Compound	Log P [4]	Log D (pH 5.5) [4]	Log D (pH 7.5) [4]	Papp (Apical Basolateral) [9]	Papp (Basolateral Apical) [9]	Efflux Ratio (Papp B–A / Papp A–B) [9]	also measured
> 5	1.5 ± 2.2 ×10⁻⁶ cm/s	10.9 ± 5 ×10⁻⁶ cm/s	7.3	1.48 ×10⁻⁶ cm/s	90 pmol	10.9 ×10⁻⁶ cm/s	0.45 pmol/μg protein	–	–	–	–	–	–	CN(C)C/C=C/C(=O)Nc1cc2c(Nc3ccc(F)c(Cl)c3)ncnc2cc1O[C@H]1CCOC1 [Afatinib, afatinib]	3.59	1.00	2.87	–	–	–	Papp apical to basolateral ([2]; 10 µM, A–B, listed as afatinib): 1.5 ×10⁻⁶ cm/s; Efflux Ratio (Papp B–A / Papp A–B) ([2]; 10 µM, listed as afatinib): 7.34 and > 6
0.33	0.57 ± 0.43 ×10⁻⁶ cm/s	0.19 ± 0.12 ×10⁻⁶ cm/s	0.3	0.57 ×10⁻⁶ cm/s	–	0.19 µm/s	0.79 pmol/μg protein	–	–	–	–	–	–	COc1cc2ncnc(Nc3ccc(F)c(Cl)c3)c2cc1OCCCN1CCOCC1 [Gefitinib, gefitinib]	4.11	1.96	3.55	0.38 ± 0.05 ×10^−6 cm/s	0.39 ± 0.038 ×10^−6 cm/s	1.0	Efflux ratio after treatment with NaN3 ([9]; after NaN3, ref [38],[39]): 0.46
